Results from PMC6152329, “Antitumoural Sulphur and Selenium Heteroaryl Compounds: Thermal Characterization and Stability Evaluation” (Molecules : A Journal of Synthetic Chemistry and Natural …, 2017).

Experiments:
[1] = tested on: non-malignant mammary-gland-derived (184B5) cell line; experiment: MTT cell viability assay, 72 h, 184B5; format: cell-based; conditions: 184B5, 72 h
Protocol: (§1) The novel synthetic compounds VA2J, VA4J, VA6G, VA6H, VA6I and VA6J were tested in breast adenocarcinoma (MCF-7) and non-malignant mammary-gland-derived (184B5) cell lines to be able to establish their potency and selectivity. The reference drug used was methylseleninic acid (MSA) as a Se-containing structure with promising in vitro and in vivo results against different tumour types. Results are expressed as the concentration that inhibits 50% cell growth (GI50), the concentration that inhibits completely cell growth (TGI) and the concentration that kills 50% of cells (LD50). The selectivity index (SI) is calculated as GI50(184B5)/GI50(MCF-7).
(§2) Cell lines were purchased from the American Type Culture Collection (ATCC, Barcelona, Spain). MCF7 cell lines were grown in Roswell Park Memorial Institute (RPMI) medium (Gibco, Madrid, Spain) supplemented with 10% fetal bovine serum (FBS; Gibco), 100 units/mL penicillin and […] (Gibco, Madrid, Spain). 184B5 cells were grown in DMEM/F12 medium supplemented with 5% FBS, 1x ITS (Lonza, Barcelona, Spain), 100 nM hydrocortisone (Sigma Aldrich, Madrid, Spain), 2 mM sodium pyruvate (Lonza), 20 ng/mL EGF (Sigma Aldrich, Madrid, Spain), 0.3 nM trans-retinoic acid (Sigma-Aldrich) 100 units/mL penicillin and […]. Cells were maintained at 37 °C and 5% CO2.
(§3) Compounds were dissolved in DMSO at a concentration of 0.01 M. Serial dilutions were prepared with non-supplemented medium. The cytotoxic effect of each compound was tested at eight different concentrations ranging between 0.01 and 100 µM.
(§4) A total of 10^4 cells/well in 96 well-plates were treated with either DMSO or increasing concentrations of the corresponding compound for 72 h and cell viability was determined using the MTT (3-(4,5-dimethylthiazol-2-yl)-2,5-diphenyltetrazolium bromide) (Sigma Aldrich, Madrid, Spain) assay. Briefly, cells were incubated with 50 µL of MTT (2 mg/mL stock) for 4 h. The medium was then removed by aspiration and the formazan crystals were dissolved in 150 µL of DMSO. The absorbance was measured at 550 nm in a microplate reader (Sunrise, Tecan, Männedorf, Switzerland). […] Data were obtained from at least three independent experiments performed in quadruplicate.

[2] = tested on: breast adenocarcinoma (MCF-7) cell line; experiment: MTT cell viability assay, 72 h, MCF-7; format: cell-based, human; conditions: for SI (selectivity index): GI50(184B5)/GI50(MCF-7); for TGI: concentration that completely inhibits cell growth; for LD50: concentration that kills 50% of cells
Protocol: as §1, §2, §3, §4

[3] = DSC successive melting-recrystallization cycles, polymorphic behaviour; format: physicochemical; design: key: I: Compounds that show a polymorphic phase transition into an amorphous or mainly amorphous solid form after a first melting–cooling scan; II: Compounds that change into a new polymorphic form with a different Tonset of fusion than the one observed at the first melting–recrystallization scan after cooling; III: These compounds show a fusion process without modifications in the thermal behaviour after an initial fusion–recrystallization cycle; IV: Compounds that show recrystallization or other types of phase transition of the original form into another crystalline one in the first heat scan; V: Compounds without fusion processes at the range of temperatures studied; *: fusion with decomposition; conditions: 10 °C/min
Protocol: To establish general polymorphic behaviours, samples of all the compounds synthetized (Figure 1) were exposed to successive cycles of melting–recrystallization using DSC. Calorimetric analyses were performed before the beginning of the degradation process (Table 6). […] This behaviour was shown by several compounds: VA1C, VA2E, VA8E, series H, VA6I, VA8J, VA6M and VA8M. DSC and PXRD results of compound VA7H are shown as supplementary material (Figures S1 and S2 and Table S1). • Behaviour II—Compounds that change into a new polymorphic form with a different Tonset of fusion than the one observed at the first melting–recrystallization scan after cooling. These compounds are VA7E and VA8O. DSC and PXRD results of compound VA7E are shown as supplementary material (Figures S3 and S4, Table S2). • Behaviour III—These compounds show a fusion process without modifications in the thermal behaviour after an initial fusion–recrystallization cycle. Consequently, there is no evidence of polymorphic behaviour. The compounds VA2C, VA2M, VA4J and VA5O belong to this group. DSC and PXRD results of compound VA2M are shown as supplementary material (Figures S5 and S6, Table S3). • Behaviour IV—Compounds that show recrystallization or other types of phase transition of the original form into another crystalline one in the first heat scan. In the successive cycles of melting–recrystallization, the new form may not alter its crystalline form or transit to another polymorphic form. Compounds VA6E, VA7J and VA7M show this behaviour. • Behaviour V—Compounds without fusion processes at the range of temperatures studied.
For calorimetric studies a Perkin–Elmer DSC diamond calibrated with indium and zinc (provided by Perkin–Elmer (Perkin Elmer, Inc. Watham, MA, USA) and fabricated according to guideline ISO35) at 10 °C·min^−1 and nitrogen flow of 20 mL·min^−1 was employed. The gas connected to the equipment was nitrogen with a purity of 99.999%. Calorimetric analyses were carried out in aluminium capsules for volatilities of 10 μL, at a heating rate of 10 °C·min^−1, using a sample of approximately 3 mg, in order to establish the Tonset, Tmax and the enthalpy of fusion ∆Hf.
The calorimetric analyses started with the study of the thermal behaviour of the compounds before the process of degradation in order to evidence the possible existence of polymorphism. For this preliminary study, samples of all the compounds were exposed to successive cycles of heating–cooling. All samples were heated from 50 °C to temperatures 15–20 °C below Tonset of the degradation process, in order to ensure that compounds were not degraded (Table 6). After melting the samples, they were left at room temperature for enough time to allow the compounds to recrystallize before the successive thermal process. Additional cycles of heating–cooling were performed if polymorphism was detected.

[4] = Thermogravimetric (TG) analysis of thermal stability; format: physicochemical; conditions: nitrogen, 50 to 350 °C, 10 °C/min
Protocol: The thermogravimetric (TG) studies were carried out with a Perkin–Elmer TGA-7 (Perkin Elmer, Inc. Watham, MA, USA) which was calibrated with alumel and nickel at 10 °C·min^−1. The calibration of the oven temperatures was carried out automatically and mass calibrated with a certified sample of 10 mg (ASTM E617, provided by Perkin Elmer, Inc. Watham, MA, USA). TG analyses were performed under a nitrogen atmosphere with a gas flow of 40 mL·min^−1, from 50 to 350 °C, at a heating rate of 10 °C·min^−1, using a sample of approximately 3 mg, in order to obtain the values of the Tonset and Tmax of the degradation process as well as any associated mass loss.

| DSC Behaviour (polymorphic/calorimetric behaviour) [3] | TG To (Tonset of thermal degradation) [4] [°C] | SMILES | other results |
| --- | --- | --- | --- |
| V | 263.3 | Sc1ccnc(S)n1 [VA2B] |  |
| III | 224.7 | Sc1nc2ccccc2s1 [VA2C] |  |
| I | 266.2 | SCc1cc2c(cc1Br)OCO2 [VA2E] |  |
| V | 103.5 | CSc1ccnc(SC)n1 [VA4B] |  |
| V | 131.8 | CSc1nc2ccccc2s1 [VA4C] |  |
| I | 105.6 | CSc1ccc2ccccc2n1 [VA4H] |  |
| V | 205.0 | N#CSCc1c2ccccc2nc2ccccc12 [VA6D] |  |
| I | 164.8 | N#CSCN1C(=O)c2ccccc2C1=O [VA6M] |  |
| * | 193.1 | N=C(N)SCc1c2ccccc2nc2ccccc12 [VA8D] |  |
| I | 215.1 | N=C(N)SCc1cc2c(cc1Br)OCO2 [VA8E] |  |
| * | 190.8 | N=C(N)SCc1ccc([N+](=O)[O-])o1 [VA8F] |  |
| V | 243.7 | N=C(N)SCc1ccc2c(c1)C(=O)c1ccccc1C2=O [VA8G] |  |
| I | 190.2 | N=C(N)SCc1ccc2ccccc2n1 [VA8H] |  |
| * | 272.4 | COc1cc2oc(=O)cc(CSC(=N)N)c2cc1OC [VA8I] |  |
| I | 251.05 | N=C(N)SCc1nc2ccccc2nc1CSC(=N)N [VA8J] |  |
| I | 233.1 | N=C(N)SCN1C(=O)c2ccccc2C1=O [VA8M] |  |
| II | 201.8 | Cc1noc(C)c1CSC(=N)N [VA8O] |  |
| * | 199.8 | N=C(N)SCc1ccc(-n2cccc2)cc1 [VA8P] |  |

The next lines start with the compound.

| SMILES | DSC Behaviour (polymorphic/calorimetric behaviour) [3] | TG To (Tonset of thermal degradation) [4] [°C] | other results |
| --- | --- | --- | --- |
| C[Se](=O)O [MSA, methylseleninic acid, reference compound] |  |  | GI50 [1]: 1.79 µM; LD50 [1]: >100 µM; TGI [1]: 3.84 µM; SI (selectivity index) [2]: 1.40; TGI ([2]; MCF-7, 72 h, MTT): 3.43 µM; GI50 ([2]; MCF-7, 72 h, MTT, concentration that inhibits 50% cell growth): 1.28 µM; LD50 ([2]; MCF-7, 72 h, MTT): >100 µM |
| [SeH]c1nc2ccccc2s1 [VA1C] | I | 218.4 |  |
| [SeH]Cc1c2ccccc2nc2ccccc12 [VA1D] | V | 244.7 |  |
| Cl.N=C(N)Sc1nc2ccccc2nc1S [VA2J, 3-Mercaptoquinoxalin-2-yl Carbamimidothioate Hydrochloride] | * | 199.2 | LD50 [1]: 20.48 µM; TGI [1]: 15.97 µM; GI50 ([1]; Homo sapiens): 12.5 µM; SI (selectivity index) [2]: 5.66; TGI ([2]; MCF-7, 72 h, MTT): 13.90 µM; LD50 ([2]; MCF-7, 72 h, MTT): 44.02 µM |
| O=C1c2ccccc2C(=O)N1CS [VA2M] | III | 166.0 |  |
| Cc1noc(C)c1C[Se]C#N [VA5O] | III | 141.7 |  |
| N#C[Se]Cc1ccc(-n2cccc2)cc1 [VA5P] | * | 149.4 |  |
| N#CSCc1ccc2c(c1)C(=O)c1ccccc1C2=O [VA6G, (9,10-Dioxo-9,10-dihydroanthracen-2-yl)methyl Thiocyanate] | V | 238.3 | LD50 [1]: 64.84 µM; TGI [1]: 34.32 µM; GI50 ([1]; Homo sapiens): 14.3 µM; SI (selectivity index) [2]: 3.99; TGI ([2]; MCF-7, 72 h, MTT): 23.95 µM; LD50 ([2]; MCF-7, 72 h, MTT): 67.27 µM |
| N=C(N)[Se]Cc1cc2c(cc1Br)OCO2 [VA7E] | II | 205.2 |  |
| N=C(N)[Se]Cc1ccc([N+](=O)[O-])o1 [VA7F] | * | 214.7 |  |
| N=C(N)[Se]Cc1ccc2c(c1)C(=O)c1ccccc1C2=O [VA7G] | V | 198.2 |  |
| N=C(N)[Se]Cc1ccc2ccccc2n1 [VA7H] | I | 145.8 |  |
| COc1cc2oc(=O)cc(C[Se]C(=N)N)c2cc1OC [VA7I] | * | 226.4 |  |
| N=C(N)[Se]CN1C(=O)c2ccccc2C1=O [VA7M] | IV | 255.8 |  |
| Cc1noc(C)c1C[Se]C(=N)N [VA7O] | V | 185.9 |  |
| N=C(N)[Se]Cc1ccc(-n2cccc2)cc1 [VA7P] | * | 175.8 |  |
